Laboratory results reported in patent publication US20140193827A1 (TEVA PHARMACEUTICAL INDUSTRIES, LTD., priority 2013, published 2014).

System: GA-primed murine splenocytes
Test: ANOVA-based pattern identification method
Format: cell-based, mouse
Source text: We sought to identify probes matching specific patterns of expression across experimental conditions using a technique that referred to as the ANOVA-based Pattern Identification Method.
To carry out the analysis in a general manner, we computed the 6 p-values required to do pairwise comparisons of all 4 conditions for all probes using the ANOVA1 function in MATLAB. We then identified sets of probes matching the desired pattern. In the example above, probes were identified as being only affected by PG if their 6 pairwise comparison pvalues matched the following pattern (pGA-PG<0.05, pPG-reference standard<0.05, pPG-Medium<0.05, pGAMedium>0.05, pGA-reference standard>0.05, preference standard-Medium>0.05).

[1] = DOWN IN generic ONLY, group mean

## glatiramer acetate [GA]
[1]
  PARP11 expression: 5.609
  PAX6 expression: 5.641
  PCSK2 expression: 5.653
  PDK2 expression: 5.937
  PHIP expression: 8.192
  PMS1 expression: 5.806
  PRICKLE2 expression: 5.859
  PTP4A2 expression: 8.952
  PTPN22 expression: 5.804
  R3HDM1 expression: 6.229
  RAB4A expression: 6.851
  RAB6B expression: 5.767
  RAB27A expression: 9.622
  RBM18 expression: 7.292
  RDH1 expression: 5.682
  RGS19 expression: 6.584
  RHBDF2 expression: 6.336
  RNF17 expression: 5.538
  RNF150 expression: 5.93
  RPL32 expression: 13.81
  RTN3 expression: 5.897
  RgenericRIP1 expression: 5.935
  SCNN1B expression: 5.616
  SEC1 expression: 5.75
  SEMA3E expression: 5.601
  SH3BP2 expression: 10.95
  SOX2 expression: 5.674
  SPCS2 expression: 5.97
  SPDYB expression: 5.641
  SPN expression: 5.889
  SPRR2K expression: 5.662
  STAT4 expression: 5.836
  SVNGR4 expression: 5.647
  SYT10 expression: 5.717
  TATDN3 expression: 5.694
  TCFAP2C expression: 5.821
  TDH expression: 5.601
  TMEFF2 expression: 5.65
  TMEM146 expression: 6.132
  TMPO expression: 8.533
  TRPM1 expression: 5.694
  TRPV3 expression: 5.597
  TSC1 expression: 5.984
  TSSC1 expression: 7.729
  TYKI expression: 7.673
  UGDH expression: 5.86
  UGT2A1 expression: 5.61
  UTX expression: 9.817
  V1RD9 expression: 5.697
  ZAP70 expression: 7.106
  ZBTB44 expression: 5.642
  ZCCHC11 expression: 5.935
  ZFP120 expression: 5.536
  ZFP212 expression: 6.401
  ZSCAN2 expression: 5.813
  control_ILMN_1378612 expression: 5.7
  control_ILMN_1378679 expression: 5.604
  control_ILMN_1378774 expression: 5.707
  control_ILMN_1378775 expression: 5.662
  control_ILMN_1379152 expression: 5.629
  control_ILMN_1379205 expression: 5.72
  genericC expression: 5.676
DOWN IN generic ONLY, group mean, first USP47 line
  USP47 expression: 6.068
DOWN IN generic ONLY, group mean, second USP47 line
  USP47 expression: 6.377
UP IN GA AND REF ONLY
  1700025G04RIK expression level: 7.268
  1700027N10RIK expression level: 6.448
  1810013L24RIK expression level: 7.658
  2310016C16RIK expression level: 5.823
  2500002A22RIK expression level: 6.674
  2610017G09RIK expression level: 5.839
  2810008M24RIK expression level: 9.714
  2810410P22RIK expression level: 7.979
  3202002H23RIK expression level: 6.527
  4930404F20RIK expression level: 6.759
  4930422G04RIK expression level: 5.79
  4930539E08RIK expression level: 6.255
  4932413O14RIK expression level: 5.732
  5830457O10RIK expression level: 6.825
  8030402P03RIK expression level: 7.776
  9430077D24RIK expression level: 7.091
  A630098G22RIK expression level: 7.124
  A830083H19RIK expression level: 7.635
  A930014D08RIK expression level: 5.703
  ACTN4 expression level: 6.609
  ALS2CL expression level: 7.393
  AP1B1 expression level: 10.95
  ARHGAP25 expression level: 10.16
  ARL1 expression level: 9.913
  ARL5A expression level: 8.028
  BAT2D expression level: 5.932
  BAZ1B expression level: 5.676
  BCL11B expression level: 7.609
  C130079K02RIK expression level: 7.532
  C920025C15RIK expression level: 6.929
  CBFB expression level: 6.648
  CCR4 expression level: 5.821
  CD226 expression level: 6.995
  CHIC2 expression level: 8.484
  CLCN3 expression level: 8.431
  COX7A1 expression level: 7.161
  CSF1 expression level: 5.383
  CXCR6 expression level: 6.834
  CYB5 expression level: 11.21
  D4ERTD22E expression level: 11.37
  D6WSU163E expression level: 6.582
  D230021E06RIK expression level: 7.605
  D630011N09RIK expression level: 5.625
  D630022O22RIK expression level: 6.33
  DCK expression level: 6.716
  DCUN1D5 expression level: 9.535
  DHX32 expression level: 8.979
  DMBT1 expression level: 5.787
  DTYMK expression level: 10.17
  EG386506 expression level: 5.743
  EG666756 expression level: 10.78
  EIF3B expression level: 6.383
  EIF4E3 expression level: 8.882
  ELAC2 expression level: 6.351
  ELF1 expression level: 10.44
  EP5TI1 expression level: 8.281
  ETS1 expression level: 7.811
  F830048D03RIK expression level: 6.799
  FANCA expression level: 5.606
  FBXO33 expression level: 8.898
  FEM1C expression level: 8.076
  FERD3L expression level: 5.887
  FYB expression level: 8.25
  GNL3L expression level: 7.689
  GPC3 expression level: 5.696
  GPI1 expression level: 11.7829
  GREM2 expression level: 6.036
  GTF3C5 expression level: 5.928
  GTL7 expression level: 7.434
  H2-T23 expression level: 10.78
  H2AFZ expression level: 11.93
  HEATR3 expression level: 5.853
  HIST1H2AG expression level: 10.07
  HIST1H2AK expression level: 12.78
  HNRNPK expression level: 10.05
  IL1F10 expression level: 6.065
  INPP4B expression level: 6.314
  KLRA1 expression level: 5.834
  KRT25 expression level: 5.8
  LOC235279 expression level: 5.818
  LOC244219 expression level: 5.958
  LOC331243 expression level: 5.641
  LOC380707 expression level: 10.02
  LOC381093 expression level: 5.885
  LOC383306 expression level: 5.921
  LOC383433 expression level: 5.667
  LOC383706 expression level: 8.36
  LOC384585 expression level: 5.764
  LOC384990 expression level: 5.909
  LOC386161 expression level: 5.652
  LOC628101 expression level: 6.566
  LOC667005 expression level: 7.02
  LOC100040244 expression level: 7.257
  LOC100040854 expression level: 5.619
  LOC100041450 expression level: 6.953
  LOC100043391 expression level: 14.29
  LOC100044190 expression level: 10.67
  LOC100046320 expression level: 7.704
  LOC100047009 expression level: 6.027
  LOC100048816 expression level: 5.928
  LSG1 expression level: 7.278
  MAD2L1BP expression level: 9.971
  MIER2 expression level: 5.885
  MX2 expression level: 8.083
  MYNN expression level: 5.819
  NCDN expression level: 5.87
  NEO1 expression level: 6.159
  NPC2 expression level: 9.575
  NUDCD2 expression level: 7.102
  OLFR701 expression level: 5.738
  OS9 expression level: 9.621
  OTTMUSG00000005523 expression level: 6.96
  PARP14 expression level: 11.13
  PCDHGC5 expression level: 6.075
  PDIA2 expression level: 5.846
  PDLIM1 expression level: 9.528
  PIBF1 expression level: 6.957
  PIGN expression level: 5.83
  PJA1 expression level: 6.736
  PK3 expression level: 6.316
  PLEKHF2 expression level: 8.247
  PLXNC1 expression level: 6.506
  PPP1CB expression level: 7.717
  PPP2R5C expression level: 10.04
  PSEN2 expression level: 5.995
  PTPN1 expression level: 9.292
  PUM2 expression level: 8.717
  RAB6 expression level: 7.499
  RAB33A expression level: 6.093
  RBM14 expression level: 6.157
  RN185 expression level: 9.959
  RNF8 expression level: 6.852
  RNF19A expression level: 5.962
  RNGTT expression level: 6.302
  RPL37 expression level: 5.765
  SAMHD1 expression level: 12.05
  SCL0002368.1_75 expression level: 9.053
  SELP expression level: 6.569
  SLC30A8 expression level: 5.652
  SLCO3A1 expression level: 6.151
  SLFN9 expression level: 5.598
  SPNB2 expression level: 5.753
  STAT3 expression level: 11.07
  STIL expression level: 5.727
  TELO2 expression level: 5.873
  TMPO expression level: 8.63
  TNP2 expression level: 5.959
  TOP2A expression level: 7.085
  TOR1A expression level: 7.512
  TPM4 expression level: 7.481
  TRAPPC2 expression level: 5.833
  TRMT2A expression level: 6.694
  TSPAN14 expression level: 9.848
  TTLL4 expression level: 5.973
  UBE2Z expression level: 6.169
  USF1 expression level: 6.915
  V1RD18 expression level: 5.691
  VMN2R81 expression level: 5.992
  VMN2R89 expression level: 6.242
  VPS37B expression level: 10.56
  WAPAL expression level: 6.423
  WDR45L expression level: 7.365
  ZDHHC21 expression level: 8.562
  ZFP277 expression level: 9.951
  ZFP281 expression level: 8.974
  ZFP800 expression level: 6.783
  ZNF24 expression level: 6.171
  ZWILCH expression level: 6.29
  ZZZ3 expression level: 6.181
UP IN generic ONLY
  5YNGR1 expression: 5.954
  1200003C05RIK expression: 9.103
  1200011M11RIK expression: 6.322
  1700021P22RIK expression: 6.037
  1700029G01RIK expression: 6.738
  1700063H04RIK expression: 5.82
  2210010L05RIK expression: 5.598
  2310046A06RIK expression: 5.634
  2310051M13RIK expression: 5.609
  2600005J22RIK expression: 5.732
  2610209A20RIK expression: 6.008
  2810046M22RIK expression: 5.995
  2810453I06RIK expression: 8.506
  2900090M10RIK expression: 5.695
  3110070M22RIK expression: 6.16
  4930430K04RIK expression: 5.499
  4930432K21RIK expression: 6.593
  4930471I01RIK expression: 5.854
  4930481A15RIK expression: 5.879
  4930543G11RIK expression: 5.775
